In PMC6287826, “Regulation of histone deacetylase 3 by metal cations and 10-hydroxy-2E-decenoic acid: Possible epigenetic mechanisms of queen-worker bee differentiation” (PLoS ONE, 2018):

Target: T1, histone deacetylase 3 (HDAC3) (Homo sapiens, UniProt O15379)
T1 construct: full length human HDAC3 (NP_003874.2) with a C-terminal FLAG tag, in complex with human NCOR2 amino acids 395–489 with an N-terminal 6xHis tag; with NCOR2 (SMRT) amino acids 395–489
Test: Fluor de Lys fluorescent deacetylase assay, fractional activity vs [10-HDA]
Type: biochemical

T1 sequence (O15379 whole entry, the tested form may be a part): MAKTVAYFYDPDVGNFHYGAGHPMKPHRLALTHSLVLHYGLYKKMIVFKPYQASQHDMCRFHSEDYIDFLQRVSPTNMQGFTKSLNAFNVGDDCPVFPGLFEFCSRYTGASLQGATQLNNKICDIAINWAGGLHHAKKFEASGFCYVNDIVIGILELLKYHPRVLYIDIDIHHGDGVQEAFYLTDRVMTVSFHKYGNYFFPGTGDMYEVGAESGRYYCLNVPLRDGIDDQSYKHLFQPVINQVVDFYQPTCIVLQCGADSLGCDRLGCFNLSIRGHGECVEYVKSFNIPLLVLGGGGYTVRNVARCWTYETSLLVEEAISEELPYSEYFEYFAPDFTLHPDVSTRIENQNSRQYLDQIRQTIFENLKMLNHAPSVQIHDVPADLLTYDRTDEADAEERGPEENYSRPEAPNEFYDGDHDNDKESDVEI
T1 sequence (Q9Y618 395-489 partner): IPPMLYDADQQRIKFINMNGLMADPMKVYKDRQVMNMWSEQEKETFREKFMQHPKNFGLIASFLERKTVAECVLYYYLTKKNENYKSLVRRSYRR

O=C(O)/C=C/CCCCCCCO [10-HDA, 10-hydroxy-2E-decenoic acid]
Ki: 5.32 mM
